In patent publication US20240254186A1, “GLP-1 Receptor Agonists Having Improved Pharmacological and Drug Delivery Properties” (priority 2021, published 2024):
Numbered stars: 1 amine (or outer) side, 2 acyl side, 3 side chain; on linkers, the order of the positions; unused ones are H or OH. Square brackets hold non-standard residues; d marks the D form. Side chains are listed from the residue outwards. Peptide text beside a SMILES is read from it. * marks the point of attachment. X5 = O=C(O)CCCCCCCCCCCCCCCc1cn(-c2ccc(C[C@H](N[*:1])C(=O)[*:2])cc2)nn1; X3 = O=C(O)CCCCCCCCCCCCCCCc1cnnn1-c1ccc(C[C@H](N[*:1])C(=O)[*:2])cc1; X7 = C[C@@](Cc1ccc(-c2ccccc2)cc1)(N[*:1])C(=O)[*:2]; Bip = N[C@@H](Cc1ccc(-c2ccccc2)cc1)C(=O)O; C18 diacid = O=C(O)CCCCCCCCCCCCCCCCC(=O)*; αMePhe(2-F) = C[C@](N)(Cc1ccccc1F)C(=O)O; γGlu = O=C(O)[C@H](CCC(=O)[*:2])N[*:1]; PEG4 = NCCOCCOCCOCCOCCC(=O)O; αMeP = C[C@@]1(C(=O)O)CCCN1; Aib = CC(C)(N)C(=O)O

biological target: T1, hGLP1 receptor (Homo sapiens, UniProt P43220); test: cAMP HTRF agonist assay in HEK cells co-expressing the hGLP1 receptor and CRE-Luciferase construct; type: cell-based; settings: Table 6; cell annotated (0% albumin); read-out: cAMP EC50
T1 construct: expressed in transfected cells; host or cells: HEK (human embryonic kidney) cells co-expressing hGLP1 receptor and a CRE-Luciferase construct
T1 sequence (P43220 24-463): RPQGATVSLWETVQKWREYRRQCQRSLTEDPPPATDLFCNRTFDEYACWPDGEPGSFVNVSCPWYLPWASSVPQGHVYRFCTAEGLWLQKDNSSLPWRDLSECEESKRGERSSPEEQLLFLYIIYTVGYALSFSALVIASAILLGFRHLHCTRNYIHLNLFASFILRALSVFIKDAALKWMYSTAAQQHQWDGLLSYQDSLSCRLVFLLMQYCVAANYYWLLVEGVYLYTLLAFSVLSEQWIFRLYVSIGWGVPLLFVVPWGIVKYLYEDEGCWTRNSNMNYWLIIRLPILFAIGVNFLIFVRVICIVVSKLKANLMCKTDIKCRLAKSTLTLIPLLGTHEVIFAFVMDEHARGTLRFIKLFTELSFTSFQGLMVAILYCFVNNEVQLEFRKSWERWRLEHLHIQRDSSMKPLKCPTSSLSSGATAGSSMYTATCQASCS
Procedure: Human embryonic kidney cells (HEK) co-expressing the hGLP1 receptor and CRE-Luciferase construct were used to determine agonist potency in this assay. The cells were thawed briefly at 37° C., transferred to a sterile tube and re-suspended in complete media at 37° C. Cells were centrifuged at 1000 rpm for 5 minutes and cells collected; cells were re-suspended in assay buffer consisting of DPBS (GIBCO) with 500 μM of the phosphodiesterase inhibitor IBMX. […] The optimal cell density was determined to be 1000 cells/well; cells were added to wells in 384-well plates containing appropriate pre-prepared dilutions of compounds (test peptides or reference compound exendin-4), sealed and incubated with CO2 for 30 min. Test peptide solutions were diluted from 10 mM stock solutions; for most peptides an initial run was performed in duplicate from a maximal concentration of 1.0 μM, with 11 concentrations tested for each peptide using serial 1:3 dilution from this maximal concentration. […] The agonist assay was a homogeneous time-resolved fluorescence (HTRF) assay (Cisbio).
Following incubation of the cells for 30 minutes with test or reference peptides, 5 μL of the cAMP acceptor cAMP-d2, prepared previously as a working solution from frozen stock (1:20 dilution), was added to each well of the assay plate, along with 5 μL of anti-cAMP antibody-cryptate working solution (diluted 1:20 from frozen stock). The wells were incubated for 1 hour at room temperature, and fluorescence was then read at 665 and 615 nm with an Envision reader with TRF laser. Data were saved and analyzed using Prism software (GraphPad). Concentration-response analysis was performed using 4-parameter logistic fits of the resulting data, and EC50 values obtained for each test and reference compound.

Going from `C[C@@H](O)[C@H](NC(=O)CNC(=O)[C@H](CCC(=O)O)NC(=O)[C@]1(C)CCCN1C(=O)[C@@H](N)Cc1c[nH]cn1)C(=O)N[C@@](C)(Cc1ccccc1F)C(=O)N[C@H](C(=O)N[C@@H](CO)C(=O)N[C@@H](CC(=O)O)C(=O)N[C@@H](Cc1ccc(-c2ccccc2)cc1)C(=O)N[C@@H](Cc1ccc(-n2cc(CCCCCCCCCCCCCCCC(=O)O)nn2)cc1)C(N)=O)[C@@H](C)O` [4-70-i1, H2N-His-α-MePro-Glu-Gly-Thr-α-MePhe(2-F)-Thr-Ser-Asp-Bip-FN3(C18 acid)-C(O)NH2] (H-H[αMeP]EGT[αMePhe(2-F)]TSD[Bip][X5]-NH2) to `C[C@@H](O)[C@H](NC(=O)CNC(=O)[C@H](CCC(=O)O)NC(=O)[C@]1(C)CCCN1C(=O)[C@@H](N)Cc1c[nH]cn1)C(=O)N[C@@](C)(Cc1ccccc1F)C(=O)N[C@H](C(=O)N[C@@H](CO)C(=O)N[C@@H](CC(=O)O)C(=O)N[C@@H](Cc1ccc(-n2cc(CCCCCCCCCCCCCCCC(=O)O)nn2)cc1)C(=O)N[C@@H](Cc1ccc(-c2ccccc2)cc1)C(N)=O)[C@@H](C)O` [4-71-i1, H2N-His-α-MePro-Glu-Gly-Thr-α-MePhe(2-F)-Thr-Ser-Asp-FN3(C18 acid)-Bip-C(O)NH2] (H-H[αMeP]EGT[αMePhe(2-F)]TSD[X5][Bip]-NH2), the EC50 falls from 0.04 nM to 0.009 nM (4.4-fold). The second is the more potent here.

Going from `C[C@@H](O)[C@H](NC(=O)CNC(=O)[C@H](CCC(=O)O)NC(=O)[C@]1(C)CCCN1C(=O)[C@@H](N)Cc1c[nH]cn1)C(=O)N[C@@](C)(Cc1ccccc1F)C(=O)N[C@H](C(=O)N[C@@H](CO)C(=O)N[C@@H](CC(=O)O)C(=O)N[C@@H](Cc1ccc(-c2ccccc2)cc1)C(=O)N[C@@H](Cc1ccc(-n2nncc2CCCCCCCCCCCCCCCC(=O)O)cc1)C(N)=O)[C@@H](C)O` [4-70-i2, H2N-His-α-MePro-Glu-Gly-Thr-α-MePhe(2-F)-Thr-Ser-Asp-Bip-FN3(C18 acid)-C(O)NH2] (H-H[αMeP]EGT[αMePhe(2-F)]TSD[Bip][X3]-NH2) to `C[C@@H](O)[C@H](NC(=O)CNC(=O)[C@H](CCC(=O)O)NC(=O)[C@]1(C)CCCN1C(=O)[C@@H](N)Cc1c[nH]cn1)C(=O)N[C@@](C)(Cc1ccccc1F)C(=O)N[C@H](C(=O)N[C@@H](CO)C(=O)N[C@@H](CC(=O)O)C(=O)N[C@@H](Cc1ccc(-n2nncc2CCCCCCCCCCCCCCCC(=O)O)cc1)C(=O)N[C@@H](Cc1ccc(-c2ccccc2)cc1)C(N)=O)[C@@H](C)O` [4-71-i2, H2N-His-α-MePro-Glu-Gly-Thr-α-MePhe(2-F)-Thr-Ser-Asp-FN3(C18 acid)-Bip-C(O)NH2] (H-H[αMeP]EGT[αMePhe(2-F)]TSD[X3][Bip]-NH2), the EC50 falls from 0.7 nM to 0.1 nM (7-fold). The second is the more potent here.

`C[C@@H](O)[C@H](NC(=O)CNC(=O)[C@H](CCC(=O)O)NC(=O)[C@]1(C)CCCN1C(=O)[C@@H](N)Cc1c[nH]cn1)C(=O)N[C@@](C)(Cc1ccccc1F)C(=O)N[C@H](C(=O)N[C@@H](CO)C(=O)N[C@@H](CC(=O)O)C(=O)N[C@@H](Cc1ccc(-c2ccccc2)cc1)C(=O)N[C@@](C)(Cc1ccc(-c2ccccc2)cc1)C(N)=O)[C@@H](C)O` [4-73-i1, H2N-His-α-MePro-Glu-Gly-Thr-α-MePhe(2F)-Thr-Ser-Asp-Bip-α-MeBip-C(O)NH2] (H-H[αMeP]EGT[αMePhe(2-F)]TSD[Bip][X7]-NH2) was tested, and the EC50 was 0.05 nM.

same assay, conditions: read-out: cAMP EC50, nM (0.1% albumin); Table 6, C-terminal PK-modifier conjugates; 0.1% albumin

`C[C@@H](O)[C@H](NC(=O)CNC(=O)[C@H](CCC(=O)O)NC(=O)[C@]1(C)CCCN1C(=O)[C@@H](N)Cc1c[nH]cn1)C(=O)N[C@@](C)(Cc1ccccc1F)C(=O)N[C@H](C(=O)N[C@@H](CO)C(=O)N[C@@H](CC(=O)O)C(=O)N[C@@H](Cc1ccc(-c2ccccc2)cc1)C(=O)N[C@@H](Cc1ccc(-c2ccccc2)cc1)C(=O)NC(C)(C)C(=O)N[C@@H](CCCCNC(=O)CCOCCOCCOCCOCCNC(=O)CC[C@H](NC(=O)CCCCCCCCCCCCCCCCC(=O)O)C(=O)O)C(N)=O)[C@@H](C)O` [4-65, H2N-His-α-MePro-Glu-Gly-Thr-α-MePhe(2-F)-Thr-Ser-Asp-Bip-Bip-C(O)NH-RY21] (H-H[αMeP]EGT[αMePhe(2-F)]TSD[Bip][Bip][Aib]K([PEG4-γGlu-C18 diacid])-NH2) showed an EC50 of 3.8 nM.
